{"source": "patent US10369129B2", "about": "“Long acting pharmaceutical composition of protease inhibitor” (TaiMed Biologics, Inc., priority 2016, dated 2019)", "key": {"laboratory-adapted virus": {"test_system": "laboratory-adapted virus", "test": "48-week resistance selection study and site-directed mutagenesis in vitro", "assay_type": "cell-based, HIV", "experimental": "A 48-week resistance selection study was performed by increasing the concentrations of TMB-607 against a laboratory-adapted virus in vitro."}, "HIV-1 protease": {"molecular_target": "HIV-1 protease (Human immunodeficiency virus type 1 group M subtype B, UniProt P04585)", "assay_type": "cell-based", "conditions": "antiviral studies"}, "HIV": {"test_system": "HIV", "conditions": "cited from earlier work"}, "solubility": {"test": "solubility", "assay_type": "physicochemical"}, "PI-resistant strains": {"test_system": "PI-resistant strains", "test": "cross-resistance studies against 63 PI-resistant strains", "assay_type": "cell-based, HIV", "conditions": "compared with approved protease inhibitors"}}}
{"smiles": "COC(=O)NC(C(=O)NCCCCC(CO)N(CC(C)C)S(=O)(=O)c1ccc(N)cc1)C(c1ccccc1)c1ccccc1", "note": "(stereo not drawn) [TMB-607]", "values": [{"measurement": "mutations selected in the protease open reading frame", "setting": "laboratory-adapted virus; 48 weeks, increasing concentrations of TMB-607, laboratory-adapted virus in vitro", "value": "Four mutations in the protease open reading frame were selected"}, {"measurement": "resistance conferred by single mutations", "setting": "laboratory-adapted virus; site-directed mutagenesis, in vitro", "value": "single mutations did not result in significant resistance"}, {"measurement": "inhibiting the HIV-1 protease", "setting": "HIV-1 protease", "value": "effective and selective"}, {"measurement": "protein binding-adjusted antiviral activity EC50", "setting": "HIV", "value": 0.023, "unit": "µg/mL"}, {"measurement": "solubility", "setting": "solubility", "value": "poor"}, {"measurement": "levels of reduced susceptibility", "setting": "PI-resistant strains", "value": "lower levels of reduced susceptibility than any of approved Protease inhibitors (PIs)"}]}
